Laboratory results taken from patent US8143254B2, “Methods for modulating ion channels” (Cornell Research Foundation, Inc., priority 2005, dated 2012).

Tests used:
Δ1-28 Kv3.4 channels = target: T1, Δ1-28 Kv3.4 channels (Homo sapiens, UniProt Q03721); test: TEVC current-voltage relationship of Δ1-28 Kv3.4 in Xenopus oocytes; assay type: cell-based; settings: 1 mM
T1 construct: expressed in transfected cells; host or cells: Xenopus oocytes (cRNA injection)
T1 sequence (Q03721 29-635): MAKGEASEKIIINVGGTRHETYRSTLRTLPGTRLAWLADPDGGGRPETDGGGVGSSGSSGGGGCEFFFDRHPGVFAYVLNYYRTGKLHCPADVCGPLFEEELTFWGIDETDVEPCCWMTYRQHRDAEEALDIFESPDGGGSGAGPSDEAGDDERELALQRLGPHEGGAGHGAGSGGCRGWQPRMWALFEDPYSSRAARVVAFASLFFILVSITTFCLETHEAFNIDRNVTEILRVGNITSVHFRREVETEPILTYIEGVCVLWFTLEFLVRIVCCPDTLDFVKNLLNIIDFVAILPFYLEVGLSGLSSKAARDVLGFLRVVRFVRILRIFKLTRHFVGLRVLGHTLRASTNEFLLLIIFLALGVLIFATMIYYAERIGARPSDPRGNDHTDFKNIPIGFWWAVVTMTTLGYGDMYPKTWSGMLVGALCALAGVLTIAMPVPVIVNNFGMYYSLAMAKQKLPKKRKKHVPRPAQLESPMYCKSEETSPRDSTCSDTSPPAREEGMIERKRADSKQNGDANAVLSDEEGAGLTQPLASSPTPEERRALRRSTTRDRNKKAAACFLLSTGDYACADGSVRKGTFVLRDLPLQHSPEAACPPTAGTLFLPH
Procedure: FIG. 6. Opening and block of Kv3.4 by two didabco compounds show voltage-dependency. Normalized I/V relationship for Δ1-28 Kv3.4 currents in oocytes in the absence (control) or presence as indicated of 1 mM JC279.3a or JC638.2a. Peak currents during 2 s pulses to voltages between −80 and +60 mV (protocol upper left insert) were recorded, before and after drug was washed in during successive 0.1 Hz, 2 s pulses from −80 to 0 mV until equilibrium block or opening was observed. Points are means from n=3-16 oocytes; error bars indicate SEM.
Whole-cell two-electrode voltage-clamp (TEVC) recordings were performed on X laevis oocytes expressing cloned Kv2.1, Kv3.4 or Kv4.2 using a Warner OC-725C amplifier and pClamp9 (Axon Instruments, Foster City, Calif.) software. Oocytes were bathed in a small-volume Warner oocyte bath and viewed with a Fisher dissection microscope. Bath solution for whole-cell oocyte recordings was (in mM): 96 NaCl, 4 KCl, 0.7 MgCl2, 1 CaCl2, 10 HEPES (pH 7.4); whole-cell oocyte TEVC pipettes were of 0.2-2 M resistance when filled with 3 M KCl. Experiments were performed 24-48 hours after cRNA injection. For assessment of current-voltage relationships in the absence or presence of dabco derivatives, oocytes were held at −80 mV, stepped for 2 seconds at voltages between −80 mV and +60 mV in 20 mV steps (Kv2.1) or between −80 and +50 mV in 10 mV steps (Kv3.4), then held for 500 ms at −40 mV before returning to the holding potential. For assessment of block during wash-in of dabco derivatives at a single voltage, oocytes were held at −80 mV, and repetitively stepped to 0 mV for 2 s with an interpulse interval of 10 s or 60 s as indicated. A range of concentrations of dabco or dabco derivatives were washed in via the bath solution during repetitive single-voltage pulses (after an initial period of 5 pulses with control solution to ensure current stabilization) until equilibrium block was achieved, to establish dose-responses. Inhibited currents are compared to the current at the end of 5-pulse control period, thus some bar graphs show ‘control’ current values slightly less than 1, and with an error bar, to show how much currents deviate in the absence of drug. Washout was performed after the highest concentration of blocker was washed in. […]
To investigate the mechanism of Kv channel block or opening by didabco compounds, the current-voltage relationship (I/V curve) of Δ1-28 Kv3.4 channels expressed in Xenopus oocytes was assessed using TEVC recording in the absence and presence of a didabco opener (JC279.3a, the 10 CH2-group didabco from FIG. 3) or a didabco blocker (JC638.2a, the para didabco from FIG. 4).

Kv2.1 Y380T = target: T2, Kv2.1 Y380T (Rattus norvegicus, UniProt P15387, Y380T/Y384T); test: TEVC of oocytes expressing Y380T mutant Kv2.1; assay type: cell-based; settings: Y380T mutation in Kv2.1
T2 construct: expressed in transfected cells; host or cells: Xenopus laevis oocytes (cRNA from pGA1)
Text: Kv2.1 mutants were constructed using the QuickChange Multi Site-Directed Mutagenesis Kit (Stratagene, La Jolla, Calif.). Mutant Kv2.1 genes (in the pGA1 oocyte expression vector for oocyte expression) were sequenced in their entirety to confirm appropriate mutations and check for inadvertent mutations, and then subcloned into a wild-type pGA1 backbone. For oocyte expression, Kv3.4 was in pBF1, Kv4.2 was in pRAT. cRNA transcripts were produced from SacII-linearized (Kv2.1), Mlullinearized (Kv3.4) and Not1-linearized (Kv4.2) DNA templates using the T3 (Kv2.1), SP6 (Kv3.4) and T7 (Kv4.2) mMessage mMachine kits (Ambion, Austin, Tex.). cRNA was quantified by spectrophotometry and its size integrity verified by gel electophoresis. Defolliculated stage V and VI Xenopus laevis oocytes (purchased from Nasco, Grand Island, N.Y.) were injected with 5 ng of cRNA encoding Kv2.1, Kv3.4 or Kv4.2. […]
Data analysis: Current-voltage relationships were obtained by measuring peak current during depolarizing pulses. Inhibition constants for DABCO blockers were calculated after generating a dose response curve by fitting with a logistic dose-response function y=A2+[A1−A2/1+(x/x0)^p], where A1 is the maximum response plateau, A2 is the minimum response plateau, x is drug concentrator, x0 is the IC50, and p the Hill slope. […]

SMILES: c1cc(C[N+]23CCN(CC2)CC3)ccc1C[N+]12CCN(CC1)CC2 [JC638.2α, α,α′-[bis(4-aza-1-azoniabicyclo[2.2.2]octanyl)]p-xylene]
- block or opening of Δ1-28 Kv3.4 (Δ1-28 Kv3.4 channels): blocker
- voltage dependence of block or opening of Kv3.4 (Δ1-28 Kv3.4 channels; attenuated at more depolarized voltages): voltage-dependent
- IC50 (Kv2.1 Y380T): 185 ± 41 µM
- slope of dose response curve (Kv2.1 Y380T): 1.3
